Test results as given in PubChem BioAssay AID330 (DTP/NCI, 2004).
“And” between values parts separate entries of the source, which are not always exact repeats. Equal values may be shown once. Inconclusive results and toxic doses are left out. Rule for the calls: active = survival T/C of 150% or more; inactive = T/C below 125% in these data.

System: P388 leukemia ip, CD2F1 mice, survival T/C
Assay: NCI In Vivo Anticancer Drug Screen. Data for tumor model P388 Leukemia (intraperitoneal) in CD2F1 (CDF1) mice
Details: endpoint: median survival time, higher = longer survival
In short: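 Mice carrying the transplanted tumor received test compound or vehicle. Survival was recorded in each group, and the value is the treated-group measurement divided by that of the vehicle-treated control group.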

[1] = dose: 100.0 mg/kg/injection, schedule: Q01DX009 (ip), vehicle: saline with Tween-80
[2] = dose: 60.0 mg/kg/injection, schedule: Q01DX005 (ip), vehicle: Klucel + Tween-80
[3] = dose: 120.0 mg/kg/injection, schedule: Q01DX005 (ip), vehicle: Klucel + Tween-80
[4] = dose: 240.0 mg/kg/injection, schedule: Q01DX005 (ip), vehicle: Klucel + Tween-80
[5] = dose: 50.0 mg/kg/injection, schedule: Q01DX009 (ip), vehicle: saline with Tween-80
[6] = dose: 200.0 mg/kg/injection, schedule: Q01DX009 (ip), vehicle: saline with Tween-80
[7] = dose: 12.5 mg/kg/injection, schedule: Q04DX002 (ip), vehicle: saline with Tween-80
[8] = dose: 25.0 mg/kg/injection, schedule: Q04DX002 (ip), vehicle: saline with Tween-80
[9] = dose: 50.0 mg/kg/injection, schedule: Q01DX005 (ip), vehicle: Klucel (hydroxypropylcellulose) (HPC)
[10] = dose: 100.0 mg/kg/injection, schedule: Q01DX005 (ip), vehicle: Klucel (hydroxypropylcellulose) (HPC)
[11] = dose: 200.0 mg/kg/injection, schedule: Q01DX005 (ip), vehicle: Klucel (hydroxypropylcellulose) (HPC)
[12] = dose: 60.0 mg/kg/injection, schedule: Q01DX005 (ip), vehicle: saline with Tween-80
[13] = dose: 120.0 mg/kg/injection, schedule: Q01DX005 (ip), vehicle: saline with Tween-80
[14] = dose: 240.0 mg/kg/injection, schedule: Q01DX005 (ip), vehicle: saline with Tween-80
[15] = dose: 60.0 mg/kg/injection, schedule: Q01DX005 (ip), vehicle: Klucel (hydroxypropylcellulose) (HPC)
[16] = dose: 120.0 mg/kg/injection, schedule: Q01DX005 (ip), vehicle: Klucel (hydroxypropylcellulose) (HPC)
[17] = dose: 240.0 mg/kg/injection, schedule: Q01DX005 (ip), vehicle: Klucel (hydroxypropylcellulose) (HPC)

Measured: T/C

COc1ccc(NC(=O)CCC(=O)Oc2ccccc2)cc1
inactive: [1] 100 % of control | dose: 400.0 mg/kg/injection, schedule: Q01DX009 (ip), vehicle: saline with Tween-80 94 % of control

COc1ccc(-c2cc3cc(CCCOC4OC(COC5OCC(O)C(O)C5O)C(O)C(O)C4O)cc(OC)c3o2)cc1OC (stereo unspecified)
inactive: dose: 18.75 mg/kg/injection, schedule: Q01DX005 (ip), vehicle: Klucel (hydroxypropylcellulose) (HPC) 96 % of control | dose: 37.5 mg/kg/injection, schedule: Q01DX005 (ip), vehicle: Klucel (hydroxypropylcellulose) (HPC) 88 % of control

Cc1cccc(NC(=O)N(C(C)C)C(C)C)c1
inactive: [2] 100 % of control | [3] 97 % of control | [4] 89 % of control

COc1ccc(C2=NCCc3cc(OC)c(OC)cc32)cc1OC
inactive: dose: 6.25 mg/kg/injection, schedule: Q01DX009 (ip), vehicle: water 111 % of control | dose: 12.5 mg/kg/injection, schedule: Q01DX009 (ip), vehicle: water 108 % of control | dose: 25.0 mg/kg/injection, schedule: Q01DX009 (ip), vehicle: water 118 % of control | dose: 50.0 mg/kg/injection, schedule: Q01DX009 (ip), vehicle: water 105 % of control | dose: 100.0 mg/kg/injection, schedule: Q01DX009 (ip), vehicle: water 111 % of control

CC1=NC2=CC=CC3=NC(C(Cl)(Cl)Cl)=NC(=N1)N23
inactive: [2] 102 % of control | [3] 102 % of control | [4] 102 % of control

Cc1ccc(NC(=O)c2cc3ccccc3cc2O)c(C)c1.Cc1ccc(NC(=O)c2cc3ccccc3cc2O)c(C)c1.[Fe+2]
inactive: dose: 50.0 mg/kg/injection, schedule: Q01DX009 (ip), vehicle: saline 92 % of control | dose: 100.0 mg/kg/injection, schedule: Q01DX009 (ip), vehicle: saline 104 % of control | dose: 200.0 mg/kg/injection, schedule: Q01DX009 (ip), vehicle: saline 90 % of control

CC(=O)/C=C(\c1ccccc1)c1c(O)c2ccccc2oc1=O
inactive: [5] 89 % of control | [1] 99 % of control | [6] 114 % of control

O=C1C=C2C=CC3CC2(O1)C1CCCCN31 (stereo unspecified)
inactive: dose: 6.25 mg/kg/injection, schedule: Q04DX002 (ip), vehicle: saline with Tween-80 113 % of control | dose: 10.0 mg/kg/injection, schedule: Q01DX010 (ip), vehicle: saline 90 % of control | [7] 106 % of control | dose: 20.0 mg/kg/injection, schedule: Q01DX010 (ip), vehicle: saline 90 % of control | dose: 25.0 mg/kg/injection, schedule: Q01DX010 (ip), vehicle: saline 90 % of control and 110 % of control | [8] 106 % of control | dose: 50.0 mg/kg/injection, schedule: Q01DX010 (ip), vehicle: saline 100 % of control and 110 % of control | dose: 100.0 mg/kg/injection, schedule: Q01DX010 (ip), vehicle: saline 100 % of control and 120 % of control

C=C1C(=O)OC2/C=C(\C)CC(O)/C=C(/CO)CC(OC(=O)/C(C)=C/C)C12 (stereo unspecified)
inactive: dose: 7.5 mg/kg/injection, schedule: Q01DX009 (ip), vehicle: saline + alcohol 111 % of control | dose: 10.0 mg/kg/injection, schedule: Q01DX009 (ip), vehicle: saline + alcohol 121 % of control

Cc1oc2c(c(=O)c1C)C1CCC(C2)N1C (stereo unspecified)
inactive: [9] 106 % of control | [10] 97 % of control

CC1CCC2(C(=O)O)CCC3(C)C(=CCC4C5(C)CCC(OC(=O)/C=C/c6ccccc6)C(C)(C)C5CCC43C)C2C1C (stereo unspecified)
inactive: dose: 7.44 mg/kg/injection, schedule: Q01DX009 (ip), vehicle: Klucel (hydroxypropylcellulose) (HPC) 107 % of control | dose: 14.88 mg/kg/injection, schedule: Q01DX009 (ip), vehicle: Klucel (hydroxypropylcellulose) (HPC) 100 % of control | dose: 29.76 mg/kg/injection, schedule: Q01DX009 (ip), vehicle: Klucel (hydroxypropylcellulose) (HPC) 101 % of control

c1ccc2c(c1)ccc1c3ccccc3ncc21
inactive: dose: 12.5 mg/kg/injection, schedule: Q04DX003 (ip), vehicle: distilled water + Tween-80 107 % of control | dose: 25.0 mg/kg/injection, schedule: Q04DX003 (ip), vehicle: distilled water + Tween-80 96 % of control | dose: 50.0 mg/kg/injection, schedule: Q04DX003 (ip), vehicle: distilled water + Tween-80 98 % of control | dose: 100.0 mg/kg/injection, schedule: Q04DX003 (ip), vehicle: distilled water + Tween-80 102 % of control | dose: 200.0 mg/kg/injection, schedule: Q04DX003 (ip), vehicle: distilled water + Tween-80 102 % of control | dose: 400.0 mg/kg/injection, schedule: Q04DX003 (ip), vehicle: distilled water + Tween-80 98 % of control

O/N=C1\CCC2CCCCC12 (stereo unspecified)
inactive: [9] 98 % of control | [10] 102 % of control | [11] 107 % of control

CCOC(=O)c1ccc(NC(CCN2CCN(CCC(=NC(C)(C)C)Nc3ccc(C(=O)OCC)cc3)CC2)=NC(C)(C)C)cc1
inactive: dose: 50.0 mg/kg/injection, schedule: Q01DX009 (ip), vehicle: Klucel (hydroxypropylcellulose) (HPC) 96 % of control | dose: 100.0 mg/kg/injection, schedule: Q01DX009 (ip), vehicle: Klucel (hydroxypropylcellulose) (HPC) 92 % of control | dose: 200.0 mg/kg/injection, schedule: Q01DX009 (ip), vehicle: Klucel (hydroxypropylcellulose) (HPC) 90 % of control

c1ccc2nc(N3CCCC3)c(N3CCCCCC3)nc2c1
inactive: [9] 100 % of control | [10] 100 % of control | [11] 107 % of control

CC(=O)NCCSSCCCCSSCCNC(C)=O
inactive: [9] 112 % of control | [10] 112 % of control

CC(=O)Oc1cc2c(cc1OC(C)=O)OCC(c1ccccc1)C2 (stereo unspecified)
inactive: [12] 98 % of control | [13] 98 % of control | [14] 97 % of control

Cc1cc2c(=O)cc(-c3ccc(Cl)cc3)oc2c(C#N)c1C
inactive: [15] 89 % of control | [16] 93 % of control | [17] 100 % of control

CCOC(=O)C1C(C(=O)c2ccc(Br)cc2)C12C(=O)N(C)c1ccccc12 (stereo unspecified)
inactive: [7] 99 % of control | [8] 92 % of control | dose: 50.0 mg/kg/injection, schedule: Q04DX002 (ip), vehicle: saline with Tween-80 93 % of control

CC(=O)OC(=O)c1c(OC(C)=O)cc(C)c2c1CC(C1(C)CO1)CC2 (stereo unspecified)
inactive: dose: 1.88 mg/kg/injection, schedule: Q01DX005 (ip), vehicle: Klucel (hydroxypropylcellulose) (HPC) 100 % of control | dose: 3.75 mg/kg/injection, schedule: Q01DX005 (ip), vehicle: Klucel (hydroxypropylcellulose) (HPC) 99 % of control | dose: 7.5 mg/kg/injection, schedule: Q01DX005 (ip), vehicle: Klucel (hydroxypropylcellulose) (HPC) 100 % of control | dose: 15.0 mg/kg/injection, schedule: Q01DX005 (ip), vehicle: Klucel (hydroxypropylcellulose) (HPC) 100 % of control | dose: 30.0 mg/kg/injection, schedule: Q01DX005 (ip), vehicle: Klucel (hydroxypropylcellulose) (HPC) 101 % of control

CCC(C)C(C)CNC12CN3CN(CN(C3)C1)C2 (stereo unspecified)
inactive: dose: 50.0 mg/kg/injection, schedule: Q01DX001 (ip), vehicle: saline 103 % of control | dose: 100.0 mg/kg/injection, schedule: Q01DX001 (ip), vehicle: saline 104 % of control | dose: 200.0 mg/kg/injection, schedule: Q01DX001 (ip), vehicle: saline 108 % of control

NC1CNC(=O)NC1=O (stereo unspecified)
inactive: dose: 50.0 mg/kg/injection, schedule: Q01DX005 (ip), vehicle: saline 101 % of control | dose: 100.0 mg/kg/injection, schedule: Q01DX005 (ip), vehicle: saline 100 % of control | dose: 200.0 mg/kg/injection, schedule: Q01DX005 (ip), vehicle: saline 101 % of control

CN(C)C1=Nc2ccc(Cl)cc2C(c2ccccc2)=NC1O (stereo unspecified)
inactive: [15] 95 % of control | [16] 98 % of control | [17] 100 % of control

CCCCCC#CC(=O)OC
inactive: dose: 25.0 mg/kg/injection, schedule: Q01DX009 (ip), vehicle: saline with Tween-80 109 % of control | [5] 109 % of control | [1] 104 % of control | [6] 118 % of control

COC(=O)C12CN(C)CC(C(=O)OC)(C1=O)C(c1ccccn1)N(C)C2c1ccccn1 (stereo unspecified)
inactive: [12] 100 % of control | [13] 98 % of control | [14] 98 % of control

COc1cc2c(cc1OC)[C@H](C(=O)O)C(c1ccc3c(c1)OCO3)N(C)C2=O (stereo partly specified)
inactive: [9] 95 % of control | [10] 103 % of control | [11] 88 % of control
